Laboratory results taken from patent US20250215030A1, “STAT MODULATORS AND USES THEREOF” (Recludix Pharma, Inc., priority 2022, published 2025).
pIC50: −log10 of the molar value.

Legend:
[1] = target: T1, Recombinant STAT6 protein (STAT6(W123-T658)) (Homo sapiens, UniProt P42226); assay: STAT6 Fluorescence Polarization (FP) Assay; format: binding; settings: STAT6(W123-T658) 250 nM, probe 5-FAM-ApYKPFQDLI-NH2 2 nM, 45-minute incubation
T1 construct: STAT6(W123-T658)
T1 sequence (P42226 123-658): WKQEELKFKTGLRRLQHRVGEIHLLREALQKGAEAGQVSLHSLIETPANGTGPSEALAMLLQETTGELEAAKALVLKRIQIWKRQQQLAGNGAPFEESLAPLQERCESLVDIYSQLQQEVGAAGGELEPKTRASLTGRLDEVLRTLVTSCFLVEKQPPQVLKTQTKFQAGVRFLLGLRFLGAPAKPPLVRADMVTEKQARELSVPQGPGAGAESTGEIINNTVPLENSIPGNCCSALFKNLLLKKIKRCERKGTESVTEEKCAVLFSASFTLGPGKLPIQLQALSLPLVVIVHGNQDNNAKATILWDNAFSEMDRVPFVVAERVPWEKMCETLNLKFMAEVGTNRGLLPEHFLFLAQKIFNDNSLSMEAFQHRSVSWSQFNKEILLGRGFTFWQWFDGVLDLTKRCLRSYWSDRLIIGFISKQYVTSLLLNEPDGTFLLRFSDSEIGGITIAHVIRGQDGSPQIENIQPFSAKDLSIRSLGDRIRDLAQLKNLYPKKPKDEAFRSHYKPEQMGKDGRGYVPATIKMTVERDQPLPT
Procedure, shortened: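 Competitive displacement of a fluorescent phosphotyrosine peptide (2 nM) from recombinant STAT6 W123-T658 (250 nM), 45 min at room temperature in 10 mM HEPES pH 7.4, 50 mM NaCl, 2 mM DTT. mP fitted against log compound for IC50, grouped A (≤300 nM) to D (>30 μM).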

[2] = target: T2, Recombinant STAT3 protein (STAT3(G127-I722)) (Homo sapiens, UniProt P40763); assay: STAT3 Fluorescence Polarization (FP) Assay; format: binding; settings: STAT3(G127-I722) 25 nM, probe 5-FAM-GpYLPQTV-NH2 2 nM, 45-minute incubation
T2 construct: STAT3(G127-I722)
Procedure, shortened: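 Serially diluted compounds (1% DMSO) were mixed with 2 nM fluorescent phosphotyrosine peptide and 25 nM STAT3 construct G127-I722, pH 7.4, incubated 45 min at room temperature. IC50 values from fitted polarization curves are reported as categories A (≤100 nM), B, C, D (>10 μM).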

T2 sequence (P40763 127-722, species assumed): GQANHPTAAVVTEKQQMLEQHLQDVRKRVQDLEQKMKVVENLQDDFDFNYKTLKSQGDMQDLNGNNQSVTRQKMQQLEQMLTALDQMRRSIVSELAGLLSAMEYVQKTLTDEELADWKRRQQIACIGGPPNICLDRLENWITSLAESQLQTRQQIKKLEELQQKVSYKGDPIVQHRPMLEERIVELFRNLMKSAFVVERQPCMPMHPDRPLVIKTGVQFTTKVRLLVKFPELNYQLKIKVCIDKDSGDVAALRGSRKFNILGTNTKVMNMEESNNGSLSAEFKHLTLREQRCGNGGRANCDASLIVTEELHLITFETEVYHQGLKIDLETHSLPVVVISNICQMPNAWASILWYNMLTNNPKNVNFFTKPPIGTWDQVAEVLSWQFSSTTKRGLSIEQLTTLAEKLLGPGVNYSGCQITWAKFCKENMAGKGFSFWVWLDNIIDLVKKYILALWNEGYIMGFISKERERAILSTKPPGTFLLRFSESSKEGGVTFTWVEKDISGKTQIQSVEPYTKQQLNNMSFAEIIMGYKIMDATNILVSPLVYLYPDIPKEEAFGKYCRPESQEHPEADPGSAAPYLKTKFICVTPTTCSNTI

pIC50 [1] | pIC50 [2] | SMILES
4.52 to 5.52 | 6.00 to 7.00 | O=C(N[C@H]1C[C@@H]2C[C@@H]2C[C@H]2CC[C@@H](C(=O)N3CC(Oc4cccnc4)C3)N2C1=O)c1cc2cc(CP(=O)(O)O)ccc2s1 [Example 350, ((2-(((3S,6S,7aS,8aR,9aR)-5-oxo-3-(3-(pyridin-3-yloxy)azetidine-1-carbonyl)decahydro-1H-cyclopropa[d]pyrrolo[1,2-a]azocin-6-yl)carbamoyl)benzo[b]thiophen-5-yl)methyl)phosphonic acid]
4.52 to 5.52 | > 7.00 | O=C(N[C@H]1C[C@H]2C[C@H]2C[C@H]2CC[C@@H](C(=O)N3CC(c4ncccn4)C3)N2C1=O)c1cc2cc(C(F)P(=O)(O)O)ccc2s1 (stereo partly drawn) [Example 317, (fluoro(2-(((3S,6S,7aR,8aS,9aR)-5-oxo-3-(3-(pyrimidin-2-yl)azetidine-1-carbonyl)decahydro-1H-cyclopropa[d]pyrrolo[1,2-a]azocin-6-yl)carbamoyl)benzo[b]thiophen-5-yl)methyl)phosphonic acid]
≥ 6.52 | 5.00 to 6.00 | N#C[C@@H]1[C@@H](c2cccnc2)CN(C(=O)[C@@H]2CC[C@@H]3C[C@H]4C[C@H]4C[C@H](NC(=O)c4cc5cc([C@H](F)P(=O)(O)O)ccc5s4)C(=O)N32)C12CC2 (single isomer, unassigned) [Example 429]
4.52 to 5.52 | 6.00 to 7.00 | O=C(N[C@H]1C[C@@H]2C[C@@H]2C[C@H]2CC[C@@H](C(=O)N3CC[C@@H](N4CCOCC4)C3)N2C1=O)c1cc2cc(C(F)(F)P(=O)(O)O)ccc2s1 [Compound 16, (difluoro(2-(((3S,6S,7aS,8aR,9aR)-3-((R)-3-morpholinopyrrolidine-1-carbonyl)-5-oxodecahydro-1H-cyclopropa[d]pyrrolo[1,2-a]azocin-6-yl)carbamoyl)benzo[b]thiophen-5-yl)methyl)phosphonic acid]
5.52 to 6.52 | > 7.00 | O=C(N[C@H]1C[C@H]2C[C@H]2C[C@H]2CC[C@@H](C(=O)N3CC(c4cnccc4O)C3)N2C1=O)c1cc2cc(C(F)P(=O)(O)O)ccc2s1 (stereo partly drawn) [Example 293, (fluoro(2-(((3S,6S,7aR,8aS,9aR)-3-(3-(4-hydroxypyridin-3-yl)azetidine-1-carbonyl)-5-oxodecahydro-1H-cyclopropa[d]pyrrolo[1,2-a]azocin-6-yl)carbamoyl)benzo[b]thiophen-5-yl)methyl)phosphonic acid]
4.52 to 5.52 | > 7.00 | CN(C)c1ccncc1C1CN(C(=O)[C@@H]2CC[C@@H]3C[C@H]4C[C@H]4C[C@H](NC(=O)c4cc5cc([C@@H](F)P(=O)(O)O)ccc5s4)C(=O)N32)C1 (single isomer, unassigned) [Example 408]
4.52 to 5.52 | 5.00 to 6.00 | O=C(N[C@H]1C[C@@H]2C[C@@H]2C[C@H]2CC[C@@H](C(=O)N3CCOc4cc(F)ccc43)N2C1=O)c1cc2cc(C(F)P(=O)(O)O)ccc2s1 (stereo partly drawn) [Example 384, (fluoro(2-(((3S,6S,7aS,8aR,9aR)-3-(7-fluoro-3,4-dihydro-2H-benzo[b][1,4]oxazine-4-carbonyl)-5-oxodecahydro-1H-cyclopropa[d]pyrrolo[1,2-a]azocin-6-yl)carbamoyl)benzo[b]thiophen-5-yl)methyl)phosphonic acid]
4.52 to 5.52 | > 7.00 | O=C(N[C@H]1C[C@H]2C[C@H]2C[C@H]2CC[C@@H](C(=O)NC3CN(C(=O)CCC(F)(F)F)C3)N2C1=O)c1cc2cc(C(F)(F)P(=O)(O)O)ccc2s1 [Compound 63, (difluoro(2-(((3S,6S,7aR,8aS,9aR)-5-oxo-3-((1-(4,4,4-trifluorobutanoyl)azetidin-3-yl)carbamoyl)decahydro-1H-cyclopropa[d]pyrrolo[1,2-a]azocin-6-yl)carbamoyl)benzo[b]thiophen-5-yl)methyl)phosphonic acid]
4.52 to 5.52 | 5.00 to 6.00 | O=C(N[C@H]1C[C@@H]2C[C@@H]2C[C@H]2CC[C@@H](C(=O)N3CC(Cc4ccccc4F)C3)N2C1=O)c1cc2cc(CP(=O)(O)O)ccc2s1 [Example 368, ((2-(((3S,6S,7aS,8aR,9aR)-3-(3-(2-fluorobenzyl)azetidine-1-carbonyl)-5-oxodecahydro-1H-cyclopropa[d]pyrrolo[1,2-a]azocin-6-yl)carbamoyl)benzo[b]thiophen-5-yl)methyl)phosphonic acid]
4.52 to 5.52 | > 7.00 | O=C(N[C@H]1C[C@H]2C[C@H]2C[C@H]2CC[C@@H](C(=O)N3CC(n4ccnc4)C3)N2C1=O)c1ccc2ccc(C(F)(F)P(=O)(O)O)cc2c1 [Compound 59, ((7-(((3S,6S,7aR,8aS,9aR)-3-(3-(1H-imidazol-1-yl)azetidine-1-carbonyl)-5-oxodecahydro-1H-cyclopropa[d]pyrrolo[1,2-a]azocin-6-yl)carbamoyl)naphthalen-2-yl)difluoromethyl)phosphonic acid]
4.52 to 5.52 | 6.00 to 7.00 | Cc1nc(N2C[C@H](NC(=O)[C@@H]3CC[C@@H]4C[C@H]5C[C@H]5C[C@H](NC(=O)c5cc6cc(C(F)P(=O)(O)O)ccc6s5)C(=O)N43)[C@@H](F)C2)n[nH]1 (stereo partly drawn) [Example 366, (fluoro(2-(((3S,6S,7aS,8aR,9aR)-3-(((3S,4S)-4-fluoro-1-(5-methyl-1H-1,2,4-triazol-3-yl)pyrrolidin-3-yl)carbamoyl)-5-oxodecahydro-1H-cyclopropa[d]pyrrolo[1,2-a]azocin-6-yl)carbamoyl)benzo[b]thiophen-5-yl)methyl)phosphonic acid]
< 4.52 | < 5.00 | O=C(N[C@H]1C[C@@H]2C[C@@H]2C[C@H]2CC[C@@H](C(=O)N[C@H]3CN(c4cncnc4)C[C@@H]3F)N2C1=O)c1cc2cc(CP(=O)(O)O)ccc2s1 [Example 279, ((2-(((3S,6S,7aS,8aR,9aR)-3-(((3S,4S)-4-fluoro-1-(pyrimidin-5-yl)pyrrolidin-3-yl)carbamoyl)-5-oxodecahydro-1H-cyclopropa[d]pyrrolo[1,2-a]azocin-6-yl)carbamoyl)benzo[b]thiophen-5-yl)methyl)phosphonic acid]
4.52 to 5.52 | > 7.00 | C[C@@H]1CN(C(=O)C2CN(C(=O)[C@@H]3CC[C@@H]4C[C@H]5C[C@H]5C[C@H](NC(=O)c5cc6cc(C(F)(F)P(=O)(O)O)ccc6s5)C(=O)N43)C2)CCO1 [Example 1, (difluoro(2-(((3S,6S,7aS,8aR,9aR)-3-(3-((R)-2-methylmorpholine-4-carbonyl)azetidine-1-carbonyl)-5-oxodecahydro-1H-cyclopropa[d]pyrrolo[1,2-a]azocin-6-yl)carbamoyl)benzo[b]thiophen-5-yl)methyl)phosphonic acid]
4.52 to 5.52 | > 7.00 | O=C(N[C@H]1C[C@@H]2C[C@@H]2C[C@H]2CC[C@@H](C(=O)N3CC(C(=O)N4CCOCC4)C3)N2C1=O)c1cc2cc(C(F)(F)P(=O)(O)O)ccc2s1 [Compound 15, (difluoro(2-(((3S,6S,7aS,8aR,9aR)-3-(3-(morpholine-4-carbonyl)azetidine-1-carbonyl)-5-oxodecahydro-1H-cyclopropa[d]pyrrolo[1,2-a]azocin-6-yl)carbamoyl)benzo[b]thiophen-5-yl)methyl)phosphonic acid]
